Test results: the NIST ThermoML archive (doi:10.1016/j.jct.2017.11.012)
± gives the expanded uncertainty stated by the source.

Conditions: for mass density: 101.33 kPa, Liquid, Buoyancy - hydrostatic balance with magnetic suspension - one sinker

CCCCn1cc[n+](C)c1.[Br-] [1-butyl-3-methylimidazolium bromide]
surface tension liquid-gas [mN/m]
Conditions | Ring tensiometer | Wilhelmy Plate
308.39 K | 50.28 ± 0.86 | 49.98 ± 0.11
313.11 K | 49.8 ± 0.85 | 49.69 ± 0.11
318.48 K | 49.51 ± 0.85 | 49.33 ± 0.11
323.54 K | – | 48.98 ± 0.11
323.57 K | 49.22 ± 0.85 | –
328.1 K | – | 48.67 ± 0.11
328.14 K | 48.96 ± 0.85 | –
333.02 K | – | 48.35 ± 0.11
333.03 K | 48.6 ± 0.84 | –
337.99 K | 48.27 ± 0.84 | –
338.01 K | – | 48.07 ± 0.11
342.75 K | 48 ± 0.84 | 47.75 ± 0.11
349.14 K | 47.72 ± 0.84 | –
349.16 K | – | 47.31 ± 0.1
353.12 K | 47.24 ± 0.83 | –
353.41 K | – | 47.09 ± 0.1
358.27 K | 47.27 ± 0.83 | –
358.3 K | – | 46.78 ± 0.1
362.9 K | 46.86 ± 0.83 | –
362.92 K | – | 46.39 ± 0.1

Conditions | mass density [kg/m3]
308.39 K | 1299.64 ± 0.46
313.12 K | 1296.36 ± 0.46
318.5 K | 1292.56 ± 0.46
323.58 K | 1288.88 ± 0.46
328.14 K | 1285.46 ± 0.46
333.02 K | 1281.54 ± 0.46
337.96 K | 1278.29 ± 0.46
342.67 K | 1275.32 ± 0.46
349.08 K | 1271.43 ± 0.46
353.08 K | 1268.23 ± 0.46
358.19 K | 1264.49 ± 0.46
362.86 K | 1261.43 ± 0.46

CCCCCCCCCCn1cc[n+](C)c1.[Br-] [1-decyl-3-methylimidazolium bromide]
Conditions | mass density [kg/m3]
298.41 K | 1128.2 ± 0.35
303.45 K | 1124.55 ± 0.35
308.2 K | 1121.27 ± 0.35
313.5 K | 1117.38 ± 0.35
318.29 K | 1113.91 ± 0.35
322.96 K | 1110.37 ± 0.35
327.96 K | 1106.69 ± 0.34
333.59 K | 1102.59 ± 0.34
337.76 K | 1099.91 ± 0.34
343.08 K | 1095.88 ± 0.34
348.29 K | 1092.59 ± 0.34
352.96 K | 1089.23 ± 0.34
358.48 K | 1085.6 ± 0.34
361.87 K | 1083.32 ± 0.34

Conditions | surface tension liquid-gas [mN/m]
303.38 K, Ring tensiometer | 28.04 ± 0.8
303.43 K, Wilhelmy Plate | 27.64 ± 0.09
308.15 K, Ring tensiometer | 27.97 ± 0.8
313.47 K, Ring tensiometer | 27.73 ± 0.79
318.26 K, Ring tensiometer | 27.54 ± 0.79
322.99 K, Ring tensiometer | 27.14 ± 0.79
323.02 K, Wilhelmy Plate | 26.87 ± 0.09
328.01 K, Ring tensiometer | 27.01 ± 0.79
328.08 K, Wilhelmy Plate | 26.65 ± 0.09
332.75 K, Ring tensiometer | 26.87 ± 0.79
332.76 K, Wilhelmy Plate | 26.45 ± 0.09
337.48 K, Wilhelmy Plate | 26.22 ± 0.09
338.06 K, Ring tensiometer | 26.74 ± 0.79
343.15 K, Ring tensiometer | 26.07 ± 0.79
343.19 K, Wilhelmy Plate | 25.97 ± 0.09
347.35 K, Ring tensiometer | 26.14 ± 0.79
347.47 K, Wilhelmy Plate | 25.82 ± 0.09
352.46 K, Ring tensiometer | 25.77 ± 0.78
352.93 K, Wilhelmy Plate | 25.57 ± 0.08
358.38 K, Ring tensiometer | 25.28 ± 0.78
358.41 K, Wilhelmy Plate | 25.36 ± 0.08
361.45 K, Ring tensiometer | 25.51 ± 0.78
361.5 K, Wilhelmy Plate | 25.22 ± 0.08

CCn1cc[n+](C)c1.[Br-] [1-ethyl-3-methylimidazolium bromide]
surface tension liquid-gas [mN/m]
Conditions | 343.14 K | 348.29 K | 348.32 K | 352.84 K | 358.28 K | 364.1 K | 364.11 K
Ring tensiometer | 62.01 ± 1.1 | 61.86 ± 1.1 | – | 61.28 ± 1.1 | 61.25 ± 1.1 | 60.53 ± 1.1 | –
Wilhelmy Plate | – | – | 61.4 ± 0.08 | 61.03 ± 0.08 | 60.65 ± 0.08 | – | 60.34 ± 0.08

Conditions | mass density [kg/m3]
348.26 K | 1381.17 ± 0.64
352.77 K | 1378.39 ± 0.64
358.17 K | 1375.04 ± 0.64
364.02 K | 1370.88 ± 0.64

CCCCCCCn1cc[n+](C)c1.[Br-] [1-heptyl-3-methylimidazolium bromide]
Conditions | mass density [kg/m3]
288.61 K | 1204.51 ± 0.76
293.46 K | 1200.12 ± 0.76
298.41 K | 1196.78 ± 0.76
303.25 K | 1193 ± 0.76
308.21 K | 1189.59 ± 0.76
313.68 K | 1184.48 ± 0.76
318.07 K | 1180.84 ± 0.76
323.13 K | 1177.36 ± 0.76
328.04 K | 1173.42 ± 0.76
333.16 K | 1169.7 ± 0.76
338.28 K | 1165.8 ± 0.76
342.93 K | 1162.61 ± 0.75
348 K | 1159.27 ± 0.75
353.15 K | 1155.57 ± 0.75
358.44 K | 1151.81 ± 0.75
361.83 K | 1149.33 ± 0.75

surface tension liquid-gas [mN/m]
Conditions | Ring tensiometer | Wilhelmy Plate
313.61 K | 34.83 ± 0.55 | 34.57 ± 0.15
317.99 K | 34.5 ± 0.55 | –
318.02 K | – | 34.35 ± 0.15
323.11 K | 34.21 ± 0.54 | –
323.13 K | – | 34.09 ± 0.15
328.07 K | 34.3 ± 0.55 | –
328.11 K | – | 33.89 ± 0.15
333.19 K | 33.55 ± 0.54 | –
333.24 K | – | 33.58 ± 0.14
338.33 K | 33.25 ± 0.54 | 33.3 ± 0.14
341.81 K | 33.17 ± 0.53 | –
341.91 K | – | 33.14 ± 0.14
347.18 K | 33.07 ± 0.53 | –
347.23 K | – | 32.89 ± 0.14
353.09 K | 32.56 ± 0.53 | –
353.14 K | – | 32.61 ± 0.14
358.31 K | 32.41 ± 0.53 | –
358.37 K | – | 32.4 ± 0.14
361.72 K | 32.03 ± 0.52 | –
361.8 K | – | 32.17 ± 0.14

CCCCCCCCCn1cc[n+](C)c1.[Br-] [1-methyl-3-nonylimidazolium bromide]
Conditions | mass density [kg/m3]
293.53 K | 1151.11 ± 0.56
298.66 K | 1147.53 ± 0.56
303.27 K | 1143.87 ± 0.56
308.55 K | 1140.39 ± 0.56
313.46 K | 1136.5 ± 0.56
318.04 K | 1132.93 ± 0.56
323.21 K | 1129.22 ± 0.56
327.91 K | 1125.75 ± 0.56
333.09 K | 1122.06 ± 0.56
338.45 K | 1118.47 ± 0.56
342.75 K | 1115.49 ± 0.56
348.28 K | 1112.09 ± 0.56
353.51 K | 1108.37 ± 0.56
358.3 K | 1105.2 ± 0.56
361.69 K | 1103.16 ± 0.56

surface tension liquid-gas [mN/m]
Conditions | Ring tensiometer | Wilhelmy Plate
298.64 K | 30.63 ± 0.62 | –
303.27 K | 30.41 ± 0.62 | –
303.28 K | – | 30.12 ± 0.08
308.54 K | 30.17 ± 0.62 | –
308.55 K | – | 29.91 ± 0.08
313.44 K | 29.95 ± 0.62 | 29.73 ± 0.08
318.03 K | 29.77 ± 0.62 | 29.54 ± 0.08
323.2 K | 29.62 ± 0.62 | –
323.23 K | – | 29.3 ± 0.08
327.94 K | 29.41 ± 0.62 | –
327.97 K | – | 29.1 ± 0.08
333.09 K | 29.19 ± 0.61 | –
333.11 K | – | 28.86 ± 0.08
338.49 K | 28.72 ± 0.61 | 28.59 ± 0.08
342.76 K | 28.51 ± 0.61 | –
342.8 K | – | 28.39 ± 0.08
348.23 K | 28.46 ± 0.61 | –
348.31 K | – | 28.18 ± 0.08
352.32 K | 27.98 ± 0.61 | –
352.4 K | – | 27.99 ± 0.08
358.25 K | 27.94 ± 0.61 | –
358.31 K | – | 27.75 ± 0.08
361.6 K | 27.82 ± 0.6 | –
361.68 K | – | 27.59 ± 0.08
